Assay results taken from US12448393B2, “Use of novel compound, for preventing, improving or treating amyotrophic lateral sclerosis” (PRG S&TECH INC., priority 2019, dated 2025).
Entries after “also recorded” stand apart in the source; their conditions may differ.

Key:
SOD1 [1] = molecular target: SOD1 (Homo sapiens, UniProt P00441); test: Immunofluorescence staining of SOD1 aggregation and misfolded SOD1; type: cell-based
Experimental: (§1) Cells on coverslip were washed with PBS, fixed with 4% PFA at room temperature for 30 minutes, and then infiltrated with 0.1% Triton X-100/PBS for 10 minutes. The cells were treated with blocking solution (anti-Human Antibody 1:500 dilution in PBS) for 1 hour, and then cells were reacted with anti-pan SOD1 (1:400 dilution), misfolded SOD1 (B8H10; 1:200 dilution in blocking solution) at 4° C. overnight. Finally, the cells were reacted with FITC and rhodamine-conjugated secondary antibody at 4° C. for 6 hours. Nuclei were stained with 4,6-diamidino-2-phenylindole (DAPI), and endoplasmic reticula (ERs) were stained with ER-Tracker Red dye for 10 minutes. The cells were washed 3 times with PBS, and then coverslips were mounted with mounting solution [H-5501; Vector Laboratories (Burlingame, CA, USA)] and analyzed by fluorescence microscopy (Zeiss).
(§2) GFP-SOD1 (WT, G85R, G93A), non-tagged SOD1 (WT, A4V, G37R, G85R, G93A) and tdTomato-TDP43 expression vectors were purchased from Addgene (Cambridge, MA, USA). Transfection was performed using Jet-PEI reagent (JetPEI; Polyplus transfection, New York, NY, USA) according to the manufacturer's protocol. Briefly, vectors were mixed with JetPEI reagent in 150 mM NaCl buffer, and then mixture was reacted for 15 minutes. The mixture was added to cells in serum-free medium and reacted for 4 hours. After reaction, the cells were replaced with a culture medium supplemented with 10% FBS.

SOD1 [2] = test: as above; type: cell-based, human; conditions: Table 1; IF staining of SOD1
Experimental: as §1, §2

[3] = tested on: WT-SOD1 and mutant SOD1-GST (A4V, G37R, G85R, G93A); test: ELISA compound screening for binding inhibitor between WT-SOD1 and mutant SOD1; design: species or system human
Experimental: For compound screening, the present inventors applied an ELISA assay system. To select a binding inhibitor between WT-SOD1 and mutant SOD1, the present inventors used 0.5% paraformaldehyde (PFA) to fix WT-SOD1 recombinant protein on a 96-well plate. The plate was dried, washed with phosphate-buffered saline (PBS), and reacted with the compounds at a final concentration of 50 μM, and then mutant SOD1-GST (A4V, G37R, G85R, G93A) proteins were added. After 2 hours of reaction, the 96-well plate was washed with PBS and blocked with 3% skim milk to prevent non specific reaction. The plate was reacted with anti-GST antibody (diluted at 1:10,000) for 1 hour, and then reacted with anti-mouse IgG-HRP (diluted at 1:50,000) for 1 hour. After washing twice, the plate was reacted with a 3,3′,5,5′-tetramethylbenzidine (TMB) solution (Calbiochem) for 30 minutes and a stop solution (1N H2SO4) for 30 minutes. Finally, the present inventors analyzed values using an ELISA reader (450 nm absorbance). Negative control (−; red line) was reacted without mutant SOD1, and positive control (+; blue line) was reacted with mutant SOD1 without the compounds.
To prepare recombinant proteins, human SOD1 (WT, A4V, G37R, G85R, G93A) was added to EcoRI and HindIII sites of pGEX-TEV vector, an improved vector made by adding a TEV protease cleavage site to pGEX-4T1 (Invitrogen). The recombinant proteins were expressed as GST-fusion proteins in Escherichia coli (E. coli) strain BL21 (DE3). The proteins were purified by glutathione-affinity chromatography.

SOD1^G93A-Tg mice = test: In vivo drug treatment of ALS model mice (grip strength, behaviour, histology, survival); design: species or system mouse
Experimental: An experiment was performed in a facility approved by the Association for Laboratory Animal Care Assessment and Accreditation in accordance with the animal policy approved by Busan National University. B6SJL-Tg (SOD1^G93A) mice were purchased from Jackson Laboratory (Stock No: 002726). All mice were maintained under temperature and light-controlled conditions (20˜23° C., light-dark cycle 12 hr-12 hr) and were provided with sterile food and water.
Vehicle (DMSO) and SLC-B036 (10 mg/kg, 20 mg/kg) were administered to 12-week-old or 14-week-old SOD1^G93A mice via intraperitoneal injection twice weekly for 6 weeks. Control mice were treated under the same conditions. For histological analysis, mice were sacrificed at 18 weeks. After dissection of mice, spinal cord was fixed with 4% paraformaldehyde for 48 hours according to basic tissue processing procedures, and embedded in a paraffin block. An embedded tissue (cervical region of the spinal cord) was cut into 5 μm with a Leica microtome, and transferred to an adhesive-coated slide (Marienfeld laboratory glassware, Germany). After deparaffinization and rehydration, the slide was stained with hematoxylin and eosin to determine the number of spinal nerves.
For behavioral experiment, grip strength was checked every 2 weeks using a grip strength meter. The mice were allowed to grasp a tension bar with their forelimbs, and then their tails were slowly pulled until they released the bar. To observe motility, respiration, and quadriplegia of the mice, image analysis was performed at the end of administration (18-20 weeks).

SOD1 (Homo sapiens, UniProt P00441), sequence (P00441 2-154): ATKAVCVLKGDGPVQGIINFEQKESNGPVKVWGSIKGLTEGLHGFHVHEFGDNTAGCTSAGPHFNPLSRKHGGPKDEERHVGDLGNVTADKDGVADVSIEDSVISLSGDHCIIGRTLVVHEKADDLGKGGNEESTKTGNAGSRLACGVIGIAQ

With `COc1cc(/C=C/C(=O)O[C@H]2Cc3cc4ccc(=O)oc4cc3OC2(C)C)ccc1O` [PRG-A-01, (S)-8,8-dimethyl-2-oxo-7,8-dihydro-2H,6H-pyrano[3,2-g]chromen-7-yl (E)-3-(4-hydroxy-3-methoxyphenyl) acrylate] the “misfolded SOD1 / SOD1 aggregation induced by hypoxic stress” value (SOD1 [1]; CoCl2, FIG. 6C) was “blocks SOD1 aggregation induced by hypoxic stress; also recorded: reduced”, the “SOD1 aggregation induced by TDP-43 overexpression, immunofluorescence” value (SOD1 [1]; FIG. 5A) was “inhibited; also recorded: reduce the SOD1 aggregation as well as TDP-43” and the Immuno-fluorscence (SOD1 [2]) was “Effect ○”. For the same compound, the ELISA ([3]; Table 1, compounds at final concentration of 50 μM) was “Effect ○”, the “binding inhibition in ELISA compound screening” value ([3]; WT-SOD1 fixed on plate, GST-tagged mutant SOD1s, FIG. 3A) was “specific for mutation” and the “dose dependence of effect on grip strength” value (SOD1^G93A-Tg mice; 20 mg/kg more effective than 10 mg/kg, FIGS. 8A and 8B) was “dose-dependent effect”. For the same compound, the “effects in ALS model mice” value (SOD1^G93A-Tg mice; FIGS. 11A and 11B, summary statements) was “protective effect against muscle weakness and movement disorder”, the lifespan extension (SOD1^G93A-Tg mice; Kaplan-Meier survival, FIG. 8D) was 10 days and the In vivo (SOD1^G93A-Tg mice; Table 1, ALS model mice) was “Effect ○”. For the same compound, the “muscle strength compared to wild-type mice” value (SOD1^G93A-Tg mice; i.p. twice a week, administration from 12 weeks of age, grip strength, FIG. 7B) was “about 70%”, the “viability of cervical spinal nerves, histological analysis” value (SOD1^G93A-Tg mice; spinal cord, H&E, FIG. 7D) was “intraspinal nerves were maintained and high” and the “muscle function, late treatment” value (SOD1^G93A-Tg mice; starting at 14 weeks of age, forelimb grip strength, FIGS. 8A and 8B) was “good effect on muscle function”.
